Reference: patent US11149011B2, “Compounds and methods for IDO and TDO modulation, and indications therefor” (Plexxikon Inc., priority 2018, dated 2021)
Like-named read-outs stand apart in the source and are kept apart here.

Columns and labels:
[1] = molecular target: T1, IDO1-expressing HEK293 cell clones (Homo sapiens, UniProt P14902); test: Cell based kynurenine assay, IDO1-expressing HEK293 cell clones
T1 construct: expressed in transfected cells; host or cells: HEK293
Experimental: (§1) IDO1-expressing or TDO-expressing HEK293 cell clones are generated upon stable transfection of plasmids expressing human IDO or human TDO under the control of CMV promoter. Cells are selected in DMEM media supplemented with 10% fetal bovine serum and 1 mg/ml G418 at 37° C. in a humidified incubator supplied with 5% CO2. The assays are performed as follows.
(§2) Cells were seeded in a 96 well plate in 50 μL of culture media at a density of 2.5×10^4 per well. Serial dilutions of compounds (in total volume of 50 μL culture media) are added into cells. 4 wells containing 0.2% DMSO treated cells serve as high controls and 4 wells containing media only with 0.2% DMSO serve as low controls. After 24 hours of incubation, the supernatant was transferred to a 384 well reaction plate and the kynurenine level determined. The percentage inhibition at individual concentrations relative to high and low controls is calculated. The data is analyzed by using nonlinear regression to generate IC50 values.

[2] = molecular target: T2, IDO1 (Homo sapiens, UniProt P14902); test: IDO enzymatic assay; format: biochemical
T2 construct: His tag (N); made in house; host or cells: E. coli
Experimental: (§3) Human IDO or TDO with N-terminal His tag is purified in E. coli. The IDO enzymatic assay is performed using 6 nM IDO and 10 μM L-Trp in the presence of 10 mM ascorbic acid, 5 μM methylene blue, 100 nM catalase and 0.01% Tween 20 in 50 mM sodium phosphate buffer (pH 6.5). 19 μL of above reaction mixture is added to wells of 384 well reaction plate containing 1 μL of various concentrations of test compound or DMSO vehicle and incubated for 20 minutes at room temperature. The TDO enzymatic reaction assay is performed using 1 nM TDO and 350 μM L-Trp in the presence of 10 mM ascorbic acid, 0.4 μM methylene blue, 100 nM catalase and 0.01% Tween 20 in 50 mM sodium phosphate buffer (pH 6.5). 19 μL of above reaction mixture is added to wells of 384 well reaction plate containing 1 μL of various concentrations of test compound or DMSO vehicle and incubated for 70 minutes at room temperature. 16 wells containing all the components of reaction mixture and 5% DMSO serve as high control. 16 well containing all the components except enzyme of reaction mixture and 5% DMSO serves as low control. Both IDO and TDO enzymatic reactions are stopped by addition of 4 μL of 30% TCA and incubated 30 minutes at 50° C. to hydrolyze N-formylkynurenine produced by IDO or TDO to kynurenine. Upon measuring the kynurenine level, the percentage inhibition is calculated at individual concentrations relative to high and low controls. The data is analyzed by using nonlinear regression to generate IC50 values.

[3] = molecular target: T3, TDO-expressing HEK293 cell clones (Homo sapiens, UniProt P48775); test: Cell based kynurenine assay, TDO-expressing HEK293 cell clones; details: HEK293 cells, 24 hours of incubation, geometric mean; read-out: HEK293 TDO Kynurenine GMean IC50 (μM) (Cellular Assay)
T3 construct: expressed in transfected cells; host or cells: HEK293
Experimental: as §1, §2

[4] = molecular target: T4, TDO (Homo sapiens, UniProt P48775); test: TDO enzymatic assay; details: geometric mean; read-out: TDO GMean: IC50 (μM) (Biochemical Assay)
T4 construct: His tag (N); made in house; host or cells: E. coli
Experimental: as §3

[5] = comparative examples 4,6 vs 5,7 indazole, cellular potency, read-out: hIDO1
[6] = geometric mean, read-out: IDO1 GMean: IC50 (μM) (Biochemical Assay)
[7] = HEK293 cells, 24 hours of incubation, geometric mean, read-out: HEK293 IDO1 Kynurenine GMean IC50 (μM) (Cellular Assay)

T4 sequence (P48775 whole entry): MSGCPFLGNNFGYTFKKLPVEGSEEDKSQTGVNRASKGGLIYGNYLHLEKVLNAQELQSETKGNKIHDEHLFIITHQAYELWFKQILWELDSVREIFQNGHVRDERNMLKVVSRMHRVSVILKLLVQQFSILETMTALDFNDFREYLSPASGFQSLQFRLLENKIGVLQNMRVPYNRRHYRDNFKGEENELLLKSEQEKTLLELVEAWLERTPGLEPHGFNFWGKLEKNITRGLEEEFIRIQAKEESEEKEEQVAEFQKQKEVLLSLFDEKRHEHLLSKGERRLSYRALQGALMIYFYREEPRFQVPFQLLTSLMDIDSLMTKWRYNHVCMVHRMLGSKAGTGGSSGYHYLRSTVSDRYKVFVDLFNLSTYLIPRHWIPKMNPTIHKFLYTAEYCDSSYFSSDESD
T3 sequence (P48775 whole entry): as above
T2 sequence (P14902 whole entry): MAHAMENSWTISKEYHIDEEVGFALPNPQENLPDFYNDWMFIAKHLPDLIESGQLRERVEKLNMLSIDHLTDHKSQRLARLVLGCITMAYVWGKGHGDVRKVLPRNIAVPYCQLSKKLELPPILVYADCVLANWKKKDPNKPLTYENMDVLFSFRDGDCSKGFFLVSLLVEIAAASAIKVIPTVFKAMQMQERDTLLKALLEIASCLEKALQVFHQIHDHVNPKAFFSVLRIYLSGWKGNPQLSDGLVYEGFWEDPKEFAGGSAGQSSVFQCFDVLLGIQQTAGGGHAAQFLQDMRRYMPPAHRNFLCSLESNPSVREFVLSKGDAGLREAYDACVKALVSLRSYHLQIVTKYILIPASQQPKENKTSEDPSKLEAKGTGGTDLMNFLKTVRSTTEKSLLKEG
T1 sequence (P14902 whole entry): as above

SMILES | IC50 [1, 5] [µM] | IC50 ([2]; comparative examples 4,6 vs 5,7 indazole, biochemical potency, read-out: IDO1) [µM] | IC50 [2, 6] [µM] | IC50 [3] [µM] | IC50 [4] [µM] | IC50 [1, 7] [µM]
OC1(c2cc(Cl)cc3cn[nH]c23)CC2(CCC2)C1 | ≥ 10 |  |  |  |  | 
OC1(c2cc(Cl)cc3[nH]ncc23)CC2(CCC2)C1 | ≥ 10 |  |  |  |  | 
OC1(c2cc(Cl)cc3[nH]ncc23)CC2(CCOCC2)C1 | ≥ 10 | 200 |  |  |  | 
OC1(c2cc(Cl)cc3cn[nH]c23)CCC(F)(F)CC1 [Compound P-0008, 1-(5-chloro-1H-indazol-7-yl)-4,4-difluorocyclohexan-1-ol] |  |  | 0.0001 to 10 | 0.0001 to 10 | 0.0001 to 10 | 0.0001 to 10
OC1(c2cc(Cl)cc3cn[nH]c23)CC2(CC2)C1 [Compound P-0011, 5-(5-chloro-1H-indazol-7-yl)spiro[2.3]hexan-5-ol] |  |  | 0.0001 to 10 | 0.0001 to 10 | 0.0001 to 10 | 
CC(C)(C)OC(=O)N1CCC2(CC1)CC(O)(c1cc(Cl)cc3cn[nH]c13)C2 [Compound P-0013, tert-butyl 2-(5-chloro-1H-indazol-7-yl)-2-hydroxy-7-azaspiro[3.5]nonane-7-carboxylate] |  |  | 0.0001 to 10 | 0.0001 to 10 | 0.0001 to 10 | 
OC1(c2cc(Cl)cc3cn[nH]c23)CC2(CCNCC2)C1 [Compound P-0014, 2-(5-chloro-1H-indazol-7-yl)-7-azaspiro[3.5]nonan-2-ol] |  |  | 0.0001 to 10 |  |  | 
CS(=O)(=O)N1CCC(O)(c2cc(Cl)cc3cn[nH]c23)CC1 [Compound P-0017, 4-(5-chloro-1H-indazol-7-yl)-1-(methylsulfonyl)piperidin-4-ol] |  |  | 0.0001 to 10 | 0.0001 to 10 | 0.0001 to 10 | 
CS(=O)(=O)N1CC(O)(c2cc(Cl)cc3cn[nH]c23)C1 [Compound P-0018, 3-(5-chloro-1H-indazol-7-yl)-1-(methylsulfonyl)azetidin-3-ol] |  |  | 0.0001 to 10 | 0.0001 to 10 | 0.0001 to 10 | 
CC(C)(C1CCN(C(=O)NCc2ccncc2)CC1)[C@H](O)c1cc(Cl)cc2cn[nH]c12 [Compound P-0019, (S)-4-(1-(5-chloro-1H-indazol-7-yl)-1-hydroxy-2-methylpropan-2-yl)-N-(pyridin-4-ylmethyl)piperidine-1-carboxamide] |  |  | 0.0001 to 10 | 0.0001 to 10 | 0.0001 to 10 | 0.0001 to 10
CC(C)(C1CCN(C(=O)NCCN2CCOCC2)CC1)[C@H](O)c1cc(Cl)cc2cn[nH]c12 [Compound P-0020, (S)-4-(1-(5-chloro-1H-indazol-7-yl)-1-hydroxy-2-methylpropan-2-yl)-N-(2-morpholinoethyl)piperidine-1-carboxamide] |  |  | 0.0001 to 10 | 0.0001 to 10 | 0.0001 to 10 | 0.0001 to 10
C[C@H](NC(=O)N1CCC(C(C)(C)[C@H](O)c2cc(Cl)cc3cn[nH]c23)CC1)c1ccccn1 [Compound P-0021, 4-((S)-1-(5-chloro-1H-indazol-7-yl)-1-hydroxy-2-methylpropan-2-yl)-N-((S)-1-(pyridin-2-yl)ethyl)piperidine-1-carboxamide] |  |  | 0.0001 to 10 | 0.0001 to 10 | 0.0001 to 10 | 0.0001 to 10
